Laboratory results from PubChem BioAssay (NCI).
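48-hour exposure; five concentrations; linearly interpolated endpoints. Here, GI50 denotes the concentration required for 50% inhibition of growth. TGI denotes the concentration required for complete inhibition of growth.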

Experiments:
Assay in all cases: growth of human tumour cells (NCI), 48 h
[1] = system: CCRF-CEM leukemia
[2] = system: COLO 205 colon
[3] = system: HCT-15 colon
[4] = system: HOP-62 NSCLC
[5] = system: HT29 colon
[6] = system: MDA-MB-231 breast
[7] = system: RXF 393 renal
[8] = system: SNB-19 CNS
[9] = system: U251 CNS
[10] = system: MALME-3M melanoma

Row | SMILES | GI50 [1] [µM] | TGI [1] [µM] | GI50 [2] [µM] | TGI [2] [µM] | GI50 [3] [µM] | TGI [3] [µM] | GI50 [4] [µM] | TGI [4] [µM] | GI50 [5] [µM] | TGI [5] [µM] | GI50 [6] [µM] | TGI [6] [µM] | GI50 [7] [µM] | TGI [7] [µM] | GI50 [8] [µM] | TGI [8] [µM] | GI50 [9] [µM] | TGI [9] [µM] | GI50 [10] [µM] | TGI [10] [µM]
1 | COc1cc2c(cc1OCCCCOc1ccc(-c3nc4ccccc4s3)cc1)N=C[C@@H]1CCCN1C2=O | 0.456 | 2.38 | 0.655 | 1.76 | 1.08 | 3.89 | 0.745 | 2.14 | 0.819 | 15.8 | 0.573 | 2.04 | 0.19 | 0.443 | 1.52 | 3.04 | 0.534 | 1.85 | – | –
2 | COc1ccc2c(c1)/C(=N/OC(C)=O)c1c-2c(=O)[nH]c2ccccc12 | 4.09 | 23.6 | 12.2 | 31.7 | 16.1 | 38.1 | 18 | 34.4 | 15.6 | 32.8 | 13 | 27.3 | – | – | 15.3 | 40.4 | 15.5 | 30.1 | 13.2 | 29.8
3 | O=[N+]([O-])c1ccc2nc3ccccc3cc2c1 | – | – | – | 14.9 | – | 10 | – | 6.16 | – | 4.4 | – | 8.64 | – | > 100 | – | 12.9 | – | 10.6 | – | 13.3
4 | COc1ccc2c(c1)/C(=C/c1cc(OC)c(OC)c(OC)c1)C(=O)N2C | 2.21 | 7.04 | 1.83 | 3.68 | 2.12 | > 35.6 | 4.63 | 97.6 | 2.9 | > 88.1 | 2.81 | > 27.1 | – | – | 3.19 | > 27.7 | 1.94 | 4.83 | 2.87 | > 29.2
5 | O=C(c1ccc(Cl)cc1)c1ccc(OCCSCCCCCCCCCCSCCOc2ccc(C(=O)c3ccc(Cl)cc3)cc2)cc1 | – | > 100 | – | > 100 | – | > 100 | – | > 100 | – | > 100 | – | – | – | > 100 | – | > 100 | – | > 100 | – | > 100
6 | C1=Nc2ccccc2C=Nc2ccccc2C=Nc2ccccc2C=Nc2ccccc21.[Cl-].[Pt+2] | 14.9 | 67.2 | 17.3 | 51.4 | 22.3 | 83.1 | 15.1 | 45.6 | 22.3 | 52.5 | – | – | – | – | 42.8 | > 100 | 10.5 | 27.5 | – | –
7 | COC(=O)C1C(OCc2ccccc2)C2CCC1(OC)C=C2C (stereo unspecified) | – | 65 | – | > 100 | – | > 100 | – | > 100 | – | > 100 | – | – | – | > 100 | – | > 100 | – | > 100 | – | > 100
8 | CSc1ncnc2c1CCN2 | – | – | > 100 | > 100 | – | > 100 | – | > 100 | > 100 | > 100 | – | – | – | – | > 100 | > 100 | – | – | > 100 | > 100
9 | O=c1c2ccccc2nc(-c2cccc(Cl)c2)n1NCC1(O)OCC(O)C(O)C1O (stereo unspecified) | – | > 100 | – | > 100 | – | > 100 | – | – | – | > 100 | – | – | – | > 100 | – | > 100 | – | > 100 | – | > 100
10 | CC(=O)/C=C/c1ccc(C)cc1 | – | > 100 | – | > 100 | – | > 100 | – | > 100 | – | > 100 | – | – | – | > 100 | – | > 100 | – | > 100 | – | > 100
11 | CC(=O)OC1Oc2ccccc2-c2oc(=O)c(-c3cc4ccccc4oc3=O)cc21 (stereo unspecified) | 23.2 | 54.2 | 35.5 | > 100 | 22.3 | > 100 | 18.6 | 34.4 | 33 | > 100 | 17.4 | 35 | – | – | 17 | 32.4 | 14.7 | 28.3 | 13.9 | 36.5
12 | O=C1CS/C(=N\S(=O)(=O)c2ccc(N3N=C4c5ccccc5CC4C3c3ccc(Cl)cc3)cc2)N1c1ccccc1 (stereo unspecified) | 13.7 | 58.3 | 1.73 | 16 | 34.8 | > 100 | 56.8 | > 100 | – | – | 86 | > 100 | 29.4 | 81.3 | 23.3 | > 100 | 27.8 | 64.8 | – | –
13 | COc1cc(/C=C(\OC(C)=O)c2ccc3c(c2)OCO3)cc(OC)c1OC | – | > 100 | – | 51.5 | – | 36.9 | – | 47.7 | – | 61.9 | – | – | – | > 100 | – | > 100 | – | 47.4 | – | 59.7
14 | Cc1ccc(Oc2ccc([N+](=O)[O-])cc2[N+](=O)[O-])c(C)c1 | – | > 100 | – | – | – | > 100 | – | > 100 | – | 59.3 | – | – | – | 89.7 | – | – | – | > 100 | – | > 100
15 | Clc1ccc(Nc2ccnc(NCCCNc3ccnc4cc(Cl)ccc34)n2)cc1 | – | – | – | – | – | – | 1.48 | 2.94 | 1.29 | 2.83 | – | – | – | – | – | – | 1.48 | 2.91 | – | –
16 | NC(CC1=CCC=CC1)C(=O)O (stereo unspecified) | – | > 100 | – | > 100 | – | > 100 | – | > 100 | – | > 100 | – | > 100 | – | > 100 | – | > 100 | – | > 100 | – | –
17 | O=C(NCc1ccncc1)C1COc2cc(-c3cc(=O)c4ccccc4o3)ccc2O1 (stereo unspecified) | – | > 100 | – | – | – | > 100 | – | > 100 | – | > 100 | – | – | – | > 100 | – | – | – | > 100 | – | > 100
18 | O=C(/C=C/c1ccccc1Cl)c1ccc(Cl)cc1Cl | – | 17.4 | – | 32.1 | – | 25.4 | – | 42.1 | – | 28 | – | – | – | – | – | 28.8 | – | 25.5 | – | 33.5
19 | O=C(CC1C=CCS1(=O)=O)NCc1ccccc1 (stereo unspecified) | – | > 100 | – | > 100 | – | > 100 | – | > 100 | – | > 100 | – | > 100 | – | > 100 | – | > 100 | – | > 100 | – | –
